Reference: patent US20230091966A1, “METHODS FOR THE TREATMENT OF CARDIOVASCULAR DISEASE WITH CYCLODEXTRINS” (Beren Therapeutics, P.B.C., priority 2020, published 2023)

What was measured:
[1] = human subject, single-ascending IV doses 500-1,000 mg/kg every 4 weeks; plasma pre-dose vs post-dose; FIG. 3A
Experimental: A human subject was treated with 2-hydroxypropyl-beta-cyclodextrin with single-ascending doses administered intravenously every 4 weeks according to Table 1 below. For each dose, whole blood was collected pre-dose, post-dose (line flush), 1 hour post-dose, and 24 hours post-dose. Plasma was separated from the whole blood and subjected to a cholesterol crystal dissolution capacity (CCDC) assay using techniques similar to those described in the literature. The CCDC assay measures the ability of a sample to dissolve cholesterol crystals.

[2] = pre-dose blood plasma incubated ex vivo with the substance; FIG. 3B
Experimental: For each dose, whole blood was collected pre-dose, post-dose (line flush), 1 hour post-dose, and 24 hours post-dose. Plasma was separated from the whole blood and subjected to a cholesterol crystal dissolution capacity (CCDC) assay using techniques similar to those described in the literature. The CCDC assay measures the ability of a sample to dissolve cholesterol crystals. Blood plasma pre-dose was also incubated ex vivo with 2-hydroxypropyl-beta-cyclodextrin and the ability of the plasma to dissolve cholesterol crystals was measured.

[3] = system: 24S-hydroxycholesterol and 27-hydroxycholesterol; conditions: human subject, IV 500-1,000 mg/kg every 4 weeks; FIGS. 4A-4C
Experimental: A human subject was treated with 2-hydroxypropyl-beta-cyclodextrin with single-ascending doses administered intravenously every 4 weeks according to Table 1 below.
In this Example, a human subject was treated with 2-hydroxypropyl-beta-cyclodextrin as in Example 2, and plasma levels of 24S-hydroxycholesterol and 27-hydroxycholesterol were measured.

ABCA1 = conditions: human subject, IV 500-1,000 mg/kg every 4 weeks; FIGS. 5A-5D
Experimental: (§1) A human subject was treated with 2-hydroxypropyl-beta-cyclodextrin with single-ascending doses administered intravenously every 4 weeks according to Table 1 below. In this Example, a human subject was treated with 2-hydroxypropyl-beta-cyclodextrin as in Example 2, and ABCA1 and ABCG1 mRNA levels were measured. […] ABCA1 and ABCG1 are major cellular transporters resulting in cholesterol efflux to […] or mature HDL particles. In cardiovascular disease, expression of ABC transporters correlates with plaque stability and morbidity.

ABCG1 = conditions: human subject, IV 500-1,000 mg/kg every 4 weeks; FIGS. 5A-5D
Experimental: as §1

2-hydroxypropyl-beta-cyclodextrin
capability of blood plasma to dissolve cholesterol crystals (CCDC) [1]: increased capability of blood plasma to dissolve cholesterol crystals | capacity of plasma to dissolve cholesterol crystals (CCDC) [2]: increased capacity to dissolve cholesterol crystals | plasma level of 24S-hydroxycholesterol [3]: increased plasma levels | plasma level of 27-hydroxycholesterol [3]: increased plasma levels | total cholesterol levels [3]: remained stable | ABCA1 mRNA levels (ABCA1): increased mRNA levels | ABCG1 mRNA levels (ABCG1): increased mRNA levels
